From patent US8455469B2, “Use of norgestimate as a selective inhibitor of TRPC3, TRPC6 and TRPC7 ion channels” (Sanofi, priority 2007, dated 2013)

Legend:
TRPC6 [1] = molecular target: T1, TRPC6 (Homo sapiens, UniProt Q9Y210); assay: FLIPR Ca2+ influx measurement, OAG-activated TRPC6 HEK293 cells; assay type: cell-based; settings: 30 μM OAG
T1 construct: expressed in transfected cells; host or cells: HEK293 (inducible expression)
T1 sequence (Q9Y210 1-931): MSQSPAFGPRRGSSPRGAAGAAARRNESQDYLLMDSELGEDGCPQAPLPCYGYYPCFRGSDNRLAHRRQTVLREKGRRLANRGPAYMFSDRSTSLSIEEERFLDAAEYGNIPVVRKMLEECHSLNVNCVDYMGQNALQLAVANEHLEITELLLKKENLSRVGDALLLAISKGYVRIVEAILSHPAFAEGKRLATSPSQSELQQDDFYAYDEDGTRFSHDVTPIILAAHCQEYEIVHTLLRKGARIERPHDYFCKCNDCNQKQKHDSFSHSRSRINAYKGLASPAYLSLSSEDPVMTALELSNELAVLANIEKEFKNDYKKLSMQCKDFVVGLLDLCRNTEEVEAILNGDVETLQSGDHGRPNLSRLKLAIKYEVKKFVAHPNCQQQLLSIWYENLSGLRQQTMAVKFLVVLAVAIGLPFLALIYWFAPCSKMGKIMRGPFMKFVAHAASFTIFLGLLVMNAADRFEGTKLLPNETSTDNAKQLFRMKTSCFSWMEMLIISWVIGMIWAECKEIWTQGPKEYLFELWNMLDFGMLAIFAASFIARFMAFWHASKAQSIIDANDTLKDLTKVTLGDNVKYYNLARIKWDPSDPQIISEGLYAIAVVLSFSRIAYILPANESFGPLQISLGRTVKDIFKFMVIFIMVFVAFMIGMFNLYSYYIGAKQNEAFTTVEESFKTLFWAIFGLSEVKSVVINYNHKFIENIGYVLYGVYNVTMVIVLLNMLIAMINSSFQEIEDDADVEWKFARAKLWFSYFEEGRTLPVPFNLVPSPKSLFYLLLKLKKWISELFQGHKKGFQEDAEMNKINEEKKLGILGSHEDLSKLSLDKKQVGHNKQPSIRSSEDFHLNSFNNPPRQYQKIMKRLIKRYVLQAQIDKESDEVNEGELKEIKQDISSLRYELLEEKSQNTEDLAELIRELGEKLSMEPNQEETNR
Description: In general, cells are provided which express a TRPC channel. Such cells can be produced using genetic methods known to a person skilled in the art. After having induced the expression of the TRPC channel, cells are usually plated into e.g. microtiter plates and grown. Usually the cells grow at the bottom of multiwell plates and are fixed. Thereafter, the cells are generally washed and loaded with a dye in a suitable loading buffer, preferably with a fluorescent dye such as fluo4am. After having removed the loading buffer, the cells are incubated with the test compound or modulator, in particular with a biochemical or chemical test compound as described above, e.g. in the form of a chemical compound library. Ca^2+ measurements can be carried out using e.g. a Fluorescence Imaging Plate Reader (FLIPR). To stimulate Ca^2+ influx through the TRPC channel a channel activator such as OAG should generally be applied.
TRPC3 and TRPC6 were directly activated by application of oleoyl-2-acetyl-sn-glycerol (OAG), a membrane permeable diacylglycerol analogue.
(A, C) Time-dependent changes of intracellular Ca^2+ concentration ([Ca^2+]i) of fluo-4-loaded induced TRPC3 HEK293 cells (A) and TRPC6 HEK293 cells (C). […] Measurements were performed in 96er well plates using FLIPR (Molecular Devices, Sunnyvale, Calif., USA) (B, D) Determination of norgestimates IC50 value on TRPC3 (B) and TRPC6 (D). […]

TRPC6 [2] = molecular target: T1, TRPC6; assay: Whole-cell patch clamp, AlF4- activated TRPC6 HEK293 cells; assay type: cell-based; settings: 10 μM
Description: Inhibition of TRPC6- and TRPC5-mediated Ca^2+ -influx by norgestimate monitored in fluorometric experiments with cell populations was validated and compared with whole-cell patch clamp recordings of single cells. Channels were indirectly excited with the same stimulus for better comparability of the norgestimate effect. Aluminium tetrafluoride (AIF^4−) applied intracellularly via the patch pipette activates G-proteins by mimicking GTP (Sternweis & Gilman, 1982; Bigay et al., 1987). Subsequently TRPC channels are stimulated and mediate non-specific cationic currents (FIG. 3 A, B) When 10 μM norgestimate were applied to activated TRPC6 channels, 89.9 ±3.1% (n=15) of the current measured at resting membrane potential was blocked. This inhibition was reversible as current amplitude increased after norgestimate wash out (FIG. 3 A).
Effect of 10 μM norgestimate (NG) on whole-cell currents evoked by AlF4^− infusion into induced TRPC6— (A) and TRPC5 HEK 293 (B) cells. Whole cell currents recorded at −70 mV (left panels) and the corresponding current-voltage (I-V) relationships are shown (right panels). […] The curves were obtained during voltage ramps from −100 to +80 mV. (C) Statistical analysis of the norgestimate effect on TRPC5— and TRPC6-mediated currents. 10 μM norgestimate inhibit 25.9±5.7% (n=20) of TRPC5-mediated currents and 89.9±3.1% (n=15) of TRPC6-mediated currents (P<0.001, Wilcoxon test, two-sided).

[3] = tested on: native heteromeric TRPC6/7 channels; assay: Whole-cell patch clamp of AVP-stimulated A7r5 cells; assay type: cell-based, rat; settings: 10 μM
Experimental: The A7r5 cell line (derived from rat thoracic aorta smooth muscle cells) is a model system to investigate endogenous TRPC channels (Jung et al., 2002; Soboloff et al., 2005). The channels were indirectly stimulated by Arg^8-vasopressin (AVP), a vasoconstricting peptide that activates the endogenous vasopressin V1A receptor in these cells (Thibonnier et al., 1991).
Perfusion of A7r5 cells with 100 nM AVP stimulated non-selective cationic currents that bore the biophysical hallmarks of TRPC channels (FIG. 5). […] When 10 μM norgestimate were applied to AVP-stimulated A7r5 cells, 86.5±6.0% (n=8) of the current measured at resting membrane potential were blocked and this effect was reversible (FIG. 5).
Effect of 10 μM norgestimate (NG) on whole-cell currents evoked by 100 nM AVP on A7r5 cells in standard extracellular solution (200 μM [Ca^2+]o). Whole cell currents recorded at −60 mV (left panels) and the corresponding I-V relationships are shown (right panels). The curves were obtained during voltage ramps from −100 to +80 mV. L-type voltage-gated Ca^2+ channels were blocked by 5 μM nimodipine (ND) during the whole experiment.

C#C[C@]1(OC(C)=O)CC[C@H]2[C@@H]3CCC4=C/C(=N/O)CC[C@@H]4[C@H]3CC[C@@]21CC [norgestimate, D-17β-acetoxy-B-ethyl-17α ethinyl-gon-4-en-3-one oxime]
IC50 (TRPC6 [1]; FLIPR, n=4): 5.2 ± 0.4 µM | TRPC6-mediated Ca2+ influx following application of OAG (TRPC6 [1]; cells preincubated with 30 μM norgestimate): strongly reduced | reversibility of TRPC6 current inhibition after wash out (TRPC6 [2]): reversible | TRPC6 current blocked (TRPC6 [2]; current at resting membrane potential (-70 mV), n=15): 89.9 ±3.1% | reversibility of current block in A7r5 cells [3]: reversible | AVP-stimulated current blocked in A7r5 cells ([3]; 100 nM AVP, resting membrane potential (-60 mV), n=8): 86.5±6.0%
